Patent US9370519B2, “Macrocyclic FLT3 kinase inhibitors” (Oncodesign S.A., priority 2011, dated 2016)

How the values were obtained:
Flt3 (h) = molecular target: T1, Flt3 (h) (Homo sapiens, UniProt P36888); assay: FLT3 in vitro peptide-based kinase assay, Protocol 1; assay type: biochemical
T1 sequence (P36888 27-993): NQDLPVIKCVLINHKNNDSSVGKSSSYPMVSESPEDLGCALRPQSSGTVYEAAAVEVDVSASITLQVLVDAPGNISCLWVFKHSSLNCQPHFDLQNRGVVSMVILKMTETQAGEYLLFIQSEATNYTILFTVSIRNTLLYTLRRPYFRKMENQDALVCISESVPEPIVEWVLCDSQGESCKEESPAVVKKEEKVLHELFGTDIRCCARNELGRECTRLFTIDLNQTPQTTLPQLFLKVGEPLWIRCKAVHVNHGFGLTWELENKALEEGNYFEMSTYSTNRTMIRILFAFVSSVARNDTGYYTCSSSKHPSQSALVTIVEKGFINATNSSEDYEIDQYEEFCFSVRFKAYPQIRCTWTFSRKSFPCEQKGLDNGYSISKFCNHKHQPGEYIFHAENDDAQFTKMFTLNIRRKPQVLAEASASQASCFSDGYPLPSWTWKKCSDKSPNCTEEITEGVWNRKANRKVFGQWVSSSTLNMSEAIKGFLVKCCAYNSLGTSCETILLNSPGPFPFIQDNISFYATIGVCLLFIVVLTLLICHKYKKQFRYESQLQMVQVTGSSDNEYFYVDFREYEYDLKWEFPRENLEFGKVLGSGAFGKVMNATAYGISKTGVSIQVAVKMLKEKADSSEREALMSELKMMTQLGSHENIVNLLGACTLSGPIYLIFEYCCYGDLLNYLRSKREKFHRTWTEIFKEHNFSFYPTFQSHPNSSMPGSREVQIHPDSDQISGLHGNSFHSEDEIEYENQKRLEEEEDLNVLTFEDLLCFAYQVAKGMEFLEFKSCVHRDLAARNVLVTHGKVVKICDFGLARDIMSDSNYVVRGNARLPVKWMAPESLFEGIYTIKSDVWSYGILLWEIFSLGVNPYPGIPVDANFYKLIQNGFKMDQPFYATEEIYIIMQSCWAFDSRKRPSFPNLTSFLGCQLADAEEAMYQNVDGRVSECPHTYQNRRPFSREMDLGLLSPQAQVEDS
Procedure: The inhibition of FLT3 kinase was assessed using FLT3 recombinant protein in an in vitro peptide-based kinase assay.
In a final reaction volume of 25 μL, Flt3 (h) (5-10 mU) is incubated with 8 mM MOPS pH 7.0, 0.2 mM EDTA, 50 μM EAIYAAPFAKKK, 10 mM MgAcetate and [g-33P-ATP] (specific activity approx. 500 cpm/pmol, concentration as required). The reaction is initiated by the addition of the MgATP mix. After incubation for 40 minutes at room temperature, the reaction is stopped by the addition of 5 μL of a 3% phosphoric acid solution. 10 μL of the reaction is then spotted onto a P30 filtermat and washed three times for 5 minutes in 75 mM phosphoric acid and once in methanol prior to drying and scintillation counting.

FLT3 wt = molecular target: T2, FLT3 wt (Homo sapiens, UniProt P36888); assay: radiometric protein kinase assay (33PanQinase Activity Assay) FLT3 wt, Protocol 2; assay type: biochemical; details: ATP 3 μM
T2 construct: purchased Invitrogen Corporation
T2 sequence (P36888 27-993): T1 sequence (P36888 27-993)
Procedure: A radiometric protein kinase assay (33PanQinase® Activity Assay) was used for measuring the kinase activity. All kinase assays were performed in 96-well FlashPlates™ from PerkinElmer (Boston, Mass., USA) in a 50 μl reaction volume. The reaction cocktail was pipetted in four steps in the following order: • 20 μl of assay buffer (standard buffer) • 5 μl of ATP solution (in H2O) • 5 μl of test compound (in 10% DMSO) • 10 μl of substrate/10 μl of enzyme solution (premixed)
The assay for FLT3 wt contains 70 mM HEPES-NaOH pH 7.5, 3 mM MgCl2, 3 mM MnCl2, 3 μM Na-orthovanadate, 1.2 mM DTT, ATP (3 μM), [γ-33P]-ATP (approx. 5×1005 cpm per well), protein kinase FLT3 wt (6.1 nM) and substrate (poly(Ala,Glu,Lys,Tyr)6:2:5:1), 0.125 μg/50 μl).
The kinases are obtained from Invitrogen Corporation.
The reaction cocktails were incubated at 30° C. for 60 minutes. The reaction was stopped with 50 μl of 2% (v/v) H3PO4, plates were aspirated and washed two times with 200 μl 0.9% (w/v) NaCl. Incorporation of 33Pi was determined with a microplate scintillation counter.

SMILES	melting point [°C]	IC50 (Flt3 (h)) [nM]	IC50 (FLT3 wt) [nM]
O=C(O)c1ccc2cc1OCCOCCNc1ccn3ncc-2c3n1 [Compound 1]	> 300	< 100	–
CN1CCC(C(=O)N2CCOCCNc3ccn4ncc(c4n3)-c3cccc2c3)CC1 [Compound 2]	> 300	> 1000	–
O=C1NCCCNc2ccn3ncc(c3n2)-c2cccc(c2)N1 [Compound 3]	> 300	< 100	–
NC(=O)c1ccc2cc1OCCNCCNc1ccn3ncc-2c3n1 [Compound 4]	> 300	< 100	–
c1cc2cc(c1)-c1cnn3ccc(nc13)NCCN(CCN1CCOCC1)CCO2 [Compound 5]	> 300	< 100	–
CC(C)N1CCNc2ccn3ncc(c3n2)-c2cccc(c2)OCC1 [Compound 6]	> 300	< 100	–
O=C1c2cccc(c2)-c2cnn3ccc(nc23)NCCNCCN1CCO [Compound 7]	271.6	100 to 1000	–
O=C1NCCN(CCO)CCNc2ccn3ncc(c3n2)-c2cccc1c2 [Compound 8]	283.9	< 100	–
CN1CCNC(=O)c2cccc(c2)-c2cnn3ccc(nc23)NCC1 [Compound 9]	287.6	100 to 1000	–
O=C(NCCCN1CCCC1)N1CCNCCOc2cccc(c2)-c2cnn3ccc1nc23 [Compound 10]	–	< 100	–
CN(C)CCNC(=O)N1CCNCCOc2cccc(c2)-c2cnn3ccc1nc23 [Compound 11]	> 300	100 to 1000	–
OCc1ccc2cc1OCCOCCNc1ccn3ncc-2c3n1 [Compound 12]	> 300	< 100	–
c1cc2cc(c1)-c1cnn3ccc(nc13)OCCN(CCCN1CCCC1)CCO2 [Compound 13]	> 300	> 1000	–
O=C1NCCNCCN(CCO)c2ccn3ncc(c3n2)-c2cccc1c2 [Compound 14]	–	> 1000	–
O=C1NCCN(C2CC2)CCN(CCO)c2ccn3ncc(c3n2)-c2cccc1c2 [Compound 15]	–	100 to 1000	–
O=C(NCCF)c1ccc2cc1OCCOCCNc1ccn3ncc-2c3n1 [Compound 20]	> 300	–	–
O=C1CNCCNc2ccn3ncc(c3n2)-c2cccc(c2)N1 [Compound 31]	–	–	> 1000
COc1ccc2cc1OCCNCCNc1ccn3ncc-2c3n1 [Compound 32]	–	–	100 to 1000
c1cc2cc(c1)-c1cnn3ccc(nc13)NCCCNCCO2 [Compound 33]	–	–	100 to 1000
O=C1CNCCNc2ccn3ncc(c3n2)-c2cccc(c2)CN1 [Compound 34]	–	–	> 1000
Fc1cc2cc(c1)-c1cnn3ccc(nc13)NCCOCCCO2 [Compound 35]	234.9	–	–
